Results taken from ChEMBL document CHEMBL1201862, “PubChem BioAssay data set” (2004).
The source made the active and inactive calls. Cut-off read from the data, not from the text of the source: actives have a measured AC50 and inactives only a lower limit.

Target: T1, Histone-lysine N-methyltransferase NSD2 (Homo sapiens, UniProt O96028)
T1 sequence (O96028 whole entry): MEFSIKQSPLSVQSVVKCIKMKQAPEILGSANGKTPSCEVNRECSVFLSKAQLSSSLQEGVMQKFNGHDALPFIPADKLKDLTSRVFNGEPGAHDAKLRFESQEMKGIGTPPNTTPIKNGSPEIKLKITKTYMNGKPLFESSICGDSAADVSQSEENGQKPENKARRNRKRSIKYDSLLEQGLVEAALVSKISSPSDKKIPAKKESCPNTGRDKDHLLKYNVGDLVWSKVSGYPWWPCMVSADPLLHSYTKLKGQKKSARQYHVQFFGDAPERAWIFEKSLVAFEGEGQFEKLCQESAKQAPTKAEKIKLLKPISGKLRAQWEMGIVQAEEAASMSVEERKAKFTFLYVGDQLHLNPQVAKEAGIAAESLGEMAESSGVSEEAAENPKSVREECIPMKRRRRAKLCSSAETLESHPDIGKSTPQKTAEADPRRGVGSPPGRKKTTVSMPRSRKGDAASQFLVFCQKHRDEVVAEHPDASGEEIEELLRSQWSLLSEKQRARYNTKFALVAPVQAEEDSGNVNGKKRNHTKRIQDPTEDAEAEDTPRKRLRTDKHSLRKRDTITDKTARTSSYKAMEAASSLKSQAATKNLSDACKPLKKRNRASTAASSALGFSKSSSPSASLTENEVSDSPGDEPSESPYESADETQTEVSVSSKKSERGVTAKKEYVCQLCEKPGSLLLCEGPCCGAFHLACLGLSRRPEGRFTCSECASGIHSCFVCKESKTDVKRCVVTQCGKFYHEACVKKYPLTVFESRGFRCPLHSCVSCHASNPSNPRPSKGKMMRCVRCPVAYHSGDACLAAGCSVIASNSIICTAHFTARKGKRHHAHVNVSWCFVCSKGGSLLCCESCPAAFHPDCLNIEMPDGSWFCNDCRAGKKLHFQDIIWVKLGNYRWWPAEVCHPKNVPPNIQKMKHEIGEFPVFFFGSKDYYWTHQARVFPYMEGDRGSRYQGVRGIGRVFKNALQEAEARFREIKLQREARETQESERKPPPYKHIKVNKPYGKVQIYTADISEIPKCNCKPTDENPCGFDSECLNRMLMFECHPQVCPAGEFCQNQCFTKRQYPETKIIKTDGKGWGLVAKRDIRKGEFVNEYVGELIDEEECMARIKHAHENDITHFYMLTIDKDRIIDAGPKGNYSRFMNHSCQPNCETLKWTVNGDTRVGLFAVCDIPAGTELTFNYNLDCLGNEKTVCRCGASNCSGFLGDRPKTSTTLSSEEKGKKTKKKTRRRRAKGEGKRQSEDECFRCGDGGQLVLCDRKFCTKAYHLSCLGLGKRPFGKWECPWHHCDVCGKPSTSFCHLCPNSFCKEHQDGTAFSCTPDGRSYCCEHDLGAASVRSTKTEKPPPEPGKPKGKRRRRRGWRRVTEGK
Assay type: biochemical

In the case of `COc1ccc(NS(=O)(=O)c2ccc3c(c2)[C@H]2C=CC[C@H]2[C@@H](c2ccc(C(=O)O)cc2)N3)cc1`, the AC50 is reported as > 20 µM (inactive).
